System: IKZF1, ASS1 and SALL4 recruitment to CRBN
Assay: Recruitment assessment: recruitment of any tested substrate from among IKZF1, ASS1 and SALL4
Assay type: cell-based
Conditions: any tested substrate at any tested compound concentration
Experimental: In this experimental set-up, cells were transfected with a construct encoding a CRBN-fusion protein and another one encoding a substrate-fusion protein. Test compound activity was assessed with increasing concentrations of test compounds (dose-response studies) to monitor the ability to promote CRBN-ligand-induced protein interaction.
Full size proteins were fused for each of the target proteins tested, except in the case of IKZF1 where isoform 7 was used. For the study, the following were used: IKZF1 recruitment: pSEL-CRBN+pMG1-IKZF1(isoform 7); ASS1 recruitment: pSEL-CRBN+pMG1-ASS1. SALL4 recruitment: pSEL-SALL4+pMG1-CRBN. […] Luciferase activity was measured 24 hours after test compound treatment using the Luciferase Assay System kit (PROMEGA, Madison, Wis.) with an Ensight plate reader (PERKIN ELMER LIFE SCIENCES, Waltham, Mass.). Data points depicted fold induction of the average luciferase activity of triplicate samples from EPO+test compound treated cells versus EPO only treated cells. Error bars represent standard deviations. Curves were fit using 4-parameter nonlinear regression in […] PRISM software.

Row | Compound | Recruitment Assessment
1 | O=C1CCC(N2Cc3ccccc3C2=O)C(=O)N1 (single isomer, unassigned) [5′-OH-THL, 3-(1-oxoisoindolin-2-yl)piperidine-2,6-dione, reference compound] | FALSE
2 | O=C1N=c2ccc(NC(=O)NCc3ccccc3)cc2=N1 [1-benzyl-3-(2-oxobenzimidazol-5-yl)urea] | FALSE
3 | O=C(O)CNc1cccc2c1CN(C1CCC(=O)NC1=O)C2=O (stereo not drawn) [2-[[2-(2,6-dioxo-3-piperidyl)-1-oxo-isoindolin-4-yl]amino]acetic acid] | FALSE
4 | O=C1CCC(N2C(=O)c3ccccc3C2OCc2ccccc2)C(=O)N1 (stereo not drawn) [3-(1-benzyloxy-3-oxo-isoindolin-2-yl)piperidine-2,6-dione] | FALSE
5 | O=C1CCC(N2Cc3ccccc3C2=O)C(=O)N1 (stereo not drawn) [3-(1-oxoisoindolin-2-yl)piperidine-2,6-dione] | TRUE
6 | Nc1cccc2c1C(=O)N(C1CCC(=O)NC1=O)C2 (stereo not drawn) [3-(7-amino-1-oxo-isoindolin-2-yl)piperidine-2,6-dione] | TRUE
7 | O=C1CCC(N2C(=O)c3ccccc3C2OC2CCCCC2)C(=O)N1 (stereo not drawn) [3-[1-(cyclohexoxy)-3-oxo-isoindolin-2-yl]piperidine-2,6-dione] | FALSE
8 | O=C1CCC(N2C(=O)c3ccccc3C2Nc2ccccc2)C(=O)N1 (stereo not drawn) [C10537, 3-(1-anilino-3-oxo-isoindolin-2-yl)piperidine-2,6-dione] | FALSE
9 | COc1ccc(C2c3ccccc3C(=O)N2C2CCC(=O)NC2=O)cc1 (stereo not drawn) [C11892] | FALSE
10 | O=C1CCC(N2Cc3ccc(NCC(=O)N4CCCCC4)cc3C2=O)C(=O)N1 (stereo not drawn) [C12581, 3-[1-oxo-6-[[2-oxo-2-(1-piperidyl)ethyl]amino]isoindolin-2-yl]piperidine-2,6-dione] | FALSE
11 | CC1CCN(C(=O)CNc2ccc3c(c2)C(=O)N(C2CCC(=O)NC2=O)C3)CC1 (stereo not drawn) [C12582, 3-[6-[[2-(4-methyl-1-piperidyl)-2-oxo-ethyl]amino]-1-oxo-isoindolin-2-yl]piperidine-2,6-dione] | FALSE
12 | CC1CCCN(C(=O)CNc2ccc3c(c2)C(=O)N(C2CCC(=O)NC2=O)C3)C1 (stereo not drawn) [C12583, 3-[6-[[2-(3-methyl-1-piperidyl)-2-oxo-ethyl]amino]-1-oxo-isoindolin-2-yl]piperidine-2,6-dione] | FALSE
13 | CC1CCCCN1C(=O)CNc1ccc2c(c1)C(=O)N(C1CCC(=O)NC1=O)C2 (stereo not drawn) [C12584, 3-[6-[[2-(2-methyl-1-piperidyl)-2-oxo-ethyl]amino]-1-oxo-isoindolin-2-yl]piperidine-2,6-dione] | FALSE
14 | CC1CN(C(=O)CNc2ccc3c(c2)C(=O)N(C2CCC(=O)NC2=O)C3)CCO1 (stereo not drawn) [C12586, 3-[6-[[2-(2-methylmorpholin-4-yl)-2-oxo-ethyl]amino]-1-oxo-isoindolin-2-yl]piperidine-2,6-dione] | FALSE
15 | O=C1CCC(N2Cc3ccc(NCC(=O)N4CC5CC4CO5)cc3C2=O)C(=O)N1 (stereo not drawn) [C12589, 3-[6-[[2-(2-oxa-5-azabicyclo[2.1.1]heptan-5-yl)-2-oxo-ethyl]amino]-1-oxo-isoindolin-2-yl]piperidine] | FALSE
16 | CC1CN(C)CCN1C(=O)CNc1ccc2c(c1)C(=O)N(C1CCC(=O)NC1=O)C2 (stereo not drawn) [C12595, 3-[6-[[2-(2,4-dimethylpiperazin-1-yl)-2-oxo-ethyl]amino]-1-oxo-isoindolin-2-yl]piperidine-2,6-dione] | FALSE
17 | CN1CCN(C(=O)CNc2ccc3c(c2)C(=O)N(C2CCC(=O)NC2=O)C3)CC1=O (stereo not drawn) [C12597, 3-[6-[[2-(4-methyl-3-oxo-piperazin-1-yl)-2-oxo-ethyl]amino]-1-oxo-isoindolin-2-yl]piperidine-2,6-dione] | FALSE
18 | CC1CN(C(=O)CNc2ccc3c(c2)C(=O)N(C2CCC(=O)NC2=O)C3)CC(=O)N1 (stereo not drawn) [C12598, 3-[6-[[2-(3-methyl-5-oxo-piperazin-1-yl)-2-oxo-ethyl]amino]-1-oxo-isoindolin-2-yl]piperidine-2,6-dione] | FALSE
19 | CC1CC(NC(=O)CNc2ccc3c(c2)C(=O)N(C2CCC(=O)NC2=O)C3)CCO1 (stereo not drawn) [C12695, 2-[[2-(2,6-dioxo-3-piperidyl)-3-oxo-isoindolin-5-yl]amino]-N-(2-methyltetrahydropyran-4-yl)acetamide] | FALSE
20 | CC1CCCN(C(=O)CNc2ccc3c(c2)C(=O)N(C2CCC(=O)NC2=O)C3)CC1 (stereo not drawn) [C12697, 3-[6-[[2-(4-methylazepan-1-yl)-2-oxo-ethyl]amino]-1-oxo-isoindolin-2-yl]piperidine-2,6-dione] | FALSE
21 | O=C1CCC(N2C(=O)CCC2=O)C(=O)N1 (stereo not drawn) [C14950, 3-(2,5-dioxopyrrolidin-1-yl)piperidine-2,6-dione] | FALSE
22 | O=C1Cc2ccccc2C(=O)N1 [C15352, 4H-isoquinoline-1,3-dione] | FALSE
23 | O=C1c2ccccc2CC1n1ccc(=O)[nH]c1=O (stereo not drawn) [C16899, 1-(1-oxoindan-2-yl)pyrimidine-2,4-dione] | FALSE

Row | Compound | Recruitment Assessment
24 | CNC(=O)Nc1cccc2c1CN(C1CCC(=O)NC1=O)C2=O (stereo not drawn) [C22594, 1-[2-(2,6-dioxo-3-piperidyl)-1-oxo-isoindolin-4-yl]-3-methyl-urea] | TRUE
25 | O=C1CCC(CN2C(=O)c3ccccc3C2=O)C(=O)N1 (stereo not drawn) [C23258, 2-[(2,6-dioxo-3-piperidyl)methyl]isoindoline-1,3-dione] | FALSE
26 | Cc1cccc2c1C(=O)N(C1CCC(=O)NC1=O)C2 (stereo not drawn) [C28661, 3-(7-methyl-1-oxo-isoindolin-2-yl)piperidine-2,6-dione] | FALSE
27 | O=C1CCC(N2Cc3cc(O)ccc3C2=O)C(=O)N1 (stereo not drawn) [C28891, 3-(5-hydroxy-1-oxo-isoindolin-2-yl)piperidine-2,6-dione] | TRUE
28 | O=C1CCC(N2Cc3ccc(O)cc3C2=O)C(=O)N1 (stereo not drawn) [C28928, 3-(6-hydroxy-1-oxo-isoindolin-2-yl)piperidine-2,6-dione] | TRUE
29 | O=C1CCC(N2Cc3cccc(O)c3C2=O)C(=O)N1 (stereo not drawn) [C28973, 3-(7-hydroxy-1-oxo-isoindolin-2-yl)piperidine-2,6-dione] | TRUE
30 | COc1cccc2c1C(=O)N(C1CCC(=O)NC1=O)C2 (stereo not drawn) [C29137, 3-(7-methoxy-1-oxo-isoindolin-2-yl)piperidine-2,6-dione] | FALSE
31 | CC(=O)Nc1cccc2c1CN(C1CCC(=O)NC1=O)C2=O (stereo not drawn) [C29330, N-[2-(2,6-dioxo-3-piperidyl)-1-oxo-isoindolin-4-yl]acetamide] | TRUE
32 | CC(=O)Nc1ccc2c(c1)C(=O)N(C1CCC(=O)NC1=O)C2 (stereo not drawn) [C29408, N-[2-(2,6-dioxo-3-piperidyl)-3-oxo-isoindolin-5-yl]acetamide] | FALSE
33 | CC(=O)Nc1cccc2c1C(=O)N(C1CCC(=O)NC1=O)C2 (stereo not drawn) [C29457, N-[2-(2,6-dioxo-3-piperidyl)-3-oxo-isoindolin-4-yl]acetamide] | TRUE
34 | NC(=O)Nc1cccc2c1CN(C1CCC(=O)NC1=O)C2=O (stereo not drawn) [C29490, [2-(2,6-dioxo-3-piperidyl)-1-oxo-isoindolin-4-yl]urea] | TRUE
35 | O=C1c2c(F)c(F)c(F)c(F)c2C(=O)N1c1ccc(F)cc1F [C34491, 2-(2,4-difluorophenyl)-4,5,6,7-tetrafluoro-isoindoline-1,3-dione] | FALSE
36 | Nc1cccc2c(=O)n(C3CCC(=O)NC3=O)nnc12 (stereo not drawn) [C35833, 3-(8-amino-4-oxo-1,2,3-benzotriazin-3-yl)piperidine-2,6-dione] | FALSE
37 | COc1cnccc1C(=O)Nc1ccc2c(c1)=NC(=O)N=2 [C36124, 3-methoxy-N-(2-oxobenzimidazol-5-yl)pyridine-4-carboxamide] | FALSE
38 | O=C1CCc2cc(C(=O)N3CCCc4ccccc43)cnc2N1 [C36126, 6-(3,4-dihydro-2H-quinoline-1-carbonyl)-3,4-dihydro-1H-1,8-naphthyridin-2-one] | FALSE
39 | O=C1CCc2cc(C(=O)N3CCc4cccnc43)cnc2N1 [C36128, 6-(2,3-dihydropyrrolo[2,3-b]pyridine-1-carbonyl)-3,4-dihydro-1H-1,8-naphthyridin-2-one] | FALSE
40 | Cc1c(N)cccc1C(=O)NC1CCC(=O)NC1=O (stereo not drawn) [C38930, 3-amino-N-(2,6-dioxo-3-piperidyl)-2-methyl-benzamide] | FALSE
41 | NC(=O)c1ccc2c(c1)C(=O)N(C1CCC(=O)NC1=O)C2 (stereo not drawn) [C39772, 2-(2,6-dioxo-3-piperidyl)-3-oxo-isoindoline-5-carboxamide] | FALSE
42 | O=C1CCC(Nc2cnc3ccccc3n2)C(=O)N1 (stereo not drawn) [C44292, 3-(quinoxalin-2-ylamino)piperidine-2,6-dione] | FALSE
43 | O=C1CCC(N2Cc3ccc(C(F)(F)F)cc3C2=O)C(=O)N1 (stereo not drawn) [C45748, 3-[1-oxo-6-(trifluoromethyl)isoindolin-2-yl]piperidine-2,6-dione] | FALSE
44 | O=C1CCC(N2C(=O)c3ccccc3C2NC(=O)c2ccccc2)C(=O)N1 (stereo not drawn) [C46003, N-[2-(2,6-dioxo-3-piperidyl)-3-oxo-isoindolin-1-yl]benzamide] | FALSE
45 | Nc1cccc2c1CN(C1CC(=O)NC(=O)C1)C2=O [C47927, 4-(4-amino-1-oxo-isoindolin-2-yl)piperidine-2,6-dione] | TRUE
